According to ChEMBL document CHEMBL3400024, “α-Adrenoceptor antagonistic and hypotensive properties of novel arylpiperazine derivatives of pyrrolidin-2-one” (Bioorg Med Chem, 2015):
The source made the active and inactive calls. No cut-off for these calls is given here.

Key:
[1] = biological target: T1, Adrenergic receptor alpha-1 (Rattus norvegicus, UniProt P15823+P23944+P43140); assay: Displacement of [3H]prazosin from rat cerebral cortex alpha-1 adrenergic receptor by liquid scintillation counting analysis; assay type: tissue-based
T1 sequence (P15823 whole entry): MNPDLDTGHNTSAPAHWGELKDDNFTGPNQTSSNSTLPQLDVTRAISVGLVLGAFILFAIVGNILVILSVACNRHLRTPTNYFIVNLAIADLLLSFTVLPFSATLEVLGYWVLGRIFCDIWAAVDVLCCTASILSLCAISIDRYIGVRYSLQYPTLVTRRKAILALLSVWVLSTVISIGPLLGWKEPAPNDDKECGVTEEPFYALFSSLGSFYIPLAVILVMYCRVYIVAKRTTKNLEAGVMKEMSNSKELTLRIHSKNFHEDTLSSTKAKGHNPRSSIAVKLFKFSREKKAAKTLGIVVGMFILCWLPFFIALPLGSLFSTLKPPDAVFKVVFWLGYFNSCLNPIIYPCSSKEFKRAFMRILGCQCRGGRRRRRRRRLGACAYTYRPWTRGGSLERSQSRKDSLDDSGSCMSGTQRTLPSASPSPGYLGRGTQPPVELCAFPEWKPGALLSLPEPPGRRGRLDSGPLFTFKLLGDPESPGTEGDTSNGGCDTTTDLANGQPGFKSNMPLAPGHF
T1 sequence (P23944 whole entry): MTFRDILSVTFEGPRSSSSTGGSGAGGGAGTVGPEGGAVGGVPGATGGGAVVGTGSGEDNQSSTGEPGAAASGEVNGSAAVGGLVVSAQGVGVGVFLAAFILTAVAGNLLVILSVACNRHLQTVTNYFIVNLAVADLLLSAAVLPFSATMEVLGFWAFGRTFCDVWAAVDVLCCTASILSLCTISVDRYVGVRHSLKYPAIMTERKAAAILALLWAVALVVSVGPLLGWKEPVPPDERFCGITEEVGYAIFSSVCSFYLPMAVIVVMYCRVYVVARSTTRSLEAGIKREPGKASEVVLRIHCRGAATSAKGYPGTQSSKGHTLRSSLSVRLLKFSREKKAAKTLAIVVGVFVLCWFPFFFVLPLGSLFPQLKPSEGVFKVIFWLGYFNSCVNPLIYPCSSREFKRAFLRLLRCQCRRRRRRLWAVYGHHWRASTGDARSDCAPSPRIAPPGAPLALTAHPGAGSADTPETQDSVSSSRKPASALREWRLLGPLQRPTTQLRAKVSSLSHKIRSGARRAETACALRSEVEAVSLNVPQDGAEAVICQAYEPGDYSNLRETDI
T1 sequence (P43140 whole entry): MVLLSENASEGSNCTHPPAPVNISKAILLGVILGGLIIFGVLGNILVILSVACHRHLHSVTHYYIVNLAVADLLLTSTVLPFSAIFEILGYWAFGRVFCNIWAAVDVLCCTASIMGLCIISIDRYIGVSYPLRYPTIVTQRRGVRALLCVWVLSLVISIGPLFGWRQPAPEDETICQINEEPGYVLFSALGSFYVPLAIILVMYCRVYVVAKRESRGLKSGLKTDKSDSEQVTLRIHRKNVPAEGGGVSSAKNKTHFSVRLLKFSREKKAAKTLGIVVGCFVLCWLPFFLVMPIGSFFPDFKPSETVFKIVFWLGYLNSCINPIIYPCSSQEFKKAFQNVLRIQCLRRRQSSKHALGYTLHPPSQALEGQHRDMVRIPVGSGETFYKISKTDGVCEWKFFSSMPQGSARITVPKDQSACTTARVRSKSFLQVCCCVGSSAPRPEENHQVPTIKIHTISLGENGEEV

[2] = biological target: T2, Adrenergic receptor alpha-2 (Rattus norvegicus, UniProt P22086+P19328+P22909); assay: Displacement of [3H]clonidine from rat cerebral cortex alpha-2 adrenergic receptor by liquid scintillation counting analysis; assay type: tissue-based
T2 sequence (P22086 whole entry): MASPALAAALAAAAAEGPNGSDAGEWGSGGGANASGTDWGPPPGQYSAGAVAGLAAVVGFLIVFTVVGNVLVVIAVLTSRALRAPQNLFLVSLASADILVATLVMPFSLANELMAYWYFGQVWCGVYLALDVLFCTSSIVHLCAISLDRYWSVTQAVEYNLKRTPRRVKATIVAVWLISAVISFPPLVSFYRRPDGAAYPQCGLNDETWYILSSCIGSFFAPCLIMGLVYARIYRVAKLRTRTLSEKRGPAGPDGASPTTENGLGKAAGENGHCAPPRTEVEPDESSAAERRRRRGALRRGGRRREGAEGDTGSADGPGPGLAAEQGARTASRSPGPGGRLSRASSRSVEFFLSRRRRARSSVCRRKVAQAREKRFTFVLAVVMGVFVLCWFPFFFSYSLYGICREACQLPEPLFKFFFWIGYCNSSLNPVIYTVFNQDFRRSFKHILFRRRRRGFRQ
T2 sequence (P19328 whole entry): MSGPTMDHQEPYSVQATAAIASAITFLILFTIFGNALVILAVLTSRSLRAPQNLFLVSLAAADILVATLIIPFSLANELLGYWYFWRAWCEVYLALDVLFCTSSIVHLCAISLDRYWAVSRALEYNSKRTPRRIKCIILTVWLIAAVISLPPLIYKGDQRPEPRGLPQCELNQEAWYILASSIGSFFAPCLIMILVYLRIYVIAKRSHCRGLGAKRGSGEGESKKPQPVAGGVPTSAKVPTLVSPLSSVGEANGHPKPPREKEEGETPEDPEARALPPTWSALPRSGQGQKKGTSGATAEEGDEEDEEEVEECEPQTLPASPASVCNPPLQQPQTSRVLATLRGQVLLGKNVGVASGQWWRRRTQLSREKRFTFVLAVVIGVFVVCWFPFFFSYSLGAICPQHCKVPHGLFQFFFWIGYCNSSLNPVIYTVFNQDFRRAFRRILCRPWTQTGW
T2 sequence (P22909 whole entry): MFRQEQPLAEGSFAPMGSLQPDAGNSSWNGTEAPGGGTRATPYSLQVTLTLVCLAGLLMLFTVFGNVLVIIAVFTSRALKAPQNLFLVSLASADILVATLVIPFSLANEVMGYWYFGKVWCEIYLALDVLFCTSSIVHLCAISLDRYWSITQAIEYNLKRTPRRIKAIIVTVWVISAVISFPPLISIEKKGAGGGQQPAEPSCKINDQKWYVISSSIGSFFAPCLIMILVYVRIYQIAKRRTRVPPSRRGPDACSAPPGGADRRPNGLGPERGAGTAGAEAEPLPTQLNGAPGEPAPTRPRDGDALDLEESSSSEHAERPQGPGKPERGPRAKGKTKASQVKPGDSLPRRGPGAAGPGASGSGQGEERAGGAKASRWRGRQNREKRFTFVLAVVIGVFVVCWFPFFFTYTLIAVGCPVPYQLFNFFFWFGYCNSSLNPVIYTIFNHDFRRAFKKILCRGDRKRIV

[3] = biological target: T3, Alpha-1A adrenergic receptor (Homo sapiens, UniProt P35348); assay: Antagonist activity at alpha-1A adrenergic receptor (unknown origin) incubated for 30 mins prior to agonist addition measured after 5 hrs by CCF4-AM staining-based cellular assay
T3 sequence (P35348 whole entry): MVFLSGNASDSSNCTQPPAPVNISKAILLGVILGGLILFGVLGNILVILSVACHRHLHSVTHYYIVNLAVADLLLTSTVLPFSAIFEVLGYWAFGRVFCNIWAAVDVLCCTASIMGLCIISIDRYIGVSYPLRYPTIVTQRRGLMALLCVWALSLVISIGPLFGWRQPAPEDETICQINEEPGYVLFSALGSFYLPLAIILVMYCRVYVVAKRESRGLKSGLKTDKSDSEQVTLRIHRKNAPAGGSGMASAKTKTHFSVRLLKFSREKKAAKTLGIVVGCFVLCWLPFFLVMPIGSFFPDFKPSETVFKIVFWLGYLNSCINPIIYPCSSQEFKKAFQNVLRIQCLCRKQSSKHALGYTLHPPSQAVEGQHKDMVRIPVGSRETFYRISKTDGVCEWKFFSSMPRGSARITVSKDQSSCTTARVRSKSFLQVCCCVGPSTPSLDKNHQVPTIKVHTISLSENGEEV

[4] = biological target: T4, Alpha-1B adrenergic receptor (Homo sapiens, UniProt P35368); assay: Antagonist activity at alpha-1B adrenergic receptor (unknown origin) incubated for 30 mins prior to agonist addition measured after 5 hrs by CCF4-AM staining-based cellular assay
T4 sequence (P35368 whole entry): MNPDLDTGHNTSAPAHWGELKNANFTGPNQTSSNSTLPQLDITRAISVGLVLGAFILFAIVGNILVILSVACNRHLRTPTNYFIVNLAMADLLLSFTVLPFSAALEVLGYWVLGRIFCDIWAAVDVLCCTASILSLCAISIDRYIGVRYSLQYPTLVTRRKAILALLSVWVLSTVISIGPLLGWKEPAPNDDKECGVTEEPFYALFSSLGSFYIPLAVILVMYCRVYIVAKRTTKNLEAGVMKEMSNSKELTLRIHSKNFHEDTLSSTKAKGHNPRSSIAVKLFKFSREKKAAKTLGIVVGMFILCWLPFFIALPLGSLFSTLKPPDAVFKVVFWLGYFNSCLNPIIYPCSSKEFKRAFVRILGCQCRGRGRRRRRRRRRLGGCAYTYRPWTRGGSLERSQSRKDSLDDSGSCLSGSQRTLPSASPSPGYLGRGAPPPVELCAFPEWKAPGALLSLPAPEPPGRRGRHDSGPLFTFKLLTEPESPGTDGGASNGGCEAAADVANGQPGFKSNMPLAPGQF

[5] = biological target: T5, Adrenergic receptor alpha-1 (Homo sapiens, UniProt P35348+P25100+P35368); assay: Binding affinity to alpha-1 adrenergic receptor (unknown origin)
T5 sequence (P35348 whole entry): T3 sequence (P35348 whole entry)
T5 sequence (P25100 whole entry): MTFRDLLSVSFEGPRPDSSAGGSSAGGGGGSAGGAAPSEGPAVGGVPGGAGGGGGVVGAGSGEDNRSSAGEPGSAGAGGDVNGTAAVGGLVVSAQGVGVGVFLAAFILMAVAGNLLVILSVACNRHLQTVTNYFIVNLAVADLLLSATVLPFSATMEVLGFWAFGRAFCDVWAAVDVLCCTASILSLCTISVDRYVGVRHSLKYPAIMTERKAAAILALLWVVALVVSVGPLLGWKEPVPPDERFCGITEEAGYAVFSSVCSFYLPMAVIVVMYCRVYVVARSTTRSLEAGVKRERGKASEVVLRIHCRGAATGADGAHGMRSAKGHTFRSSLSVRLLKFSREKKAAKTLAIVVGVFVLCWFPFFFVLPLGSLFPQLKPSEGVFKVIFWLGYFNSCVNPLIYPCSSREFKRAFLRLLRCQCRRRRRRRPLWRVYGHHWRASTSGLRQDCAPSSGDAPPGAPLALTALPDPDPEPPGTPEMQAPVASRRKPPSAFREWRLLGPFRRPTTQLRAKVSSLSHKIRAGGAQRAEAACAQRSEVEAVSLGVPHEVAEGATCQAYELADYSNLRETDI
T5 sequence (P35368 whole entry): T4 sequence (P35368 whole entry)

[6] = biological target: T3, Alpha-1A adrenergic receptor; assay: Agonist activity at alpha-1A adrenergic receptor (unknown origin) after 5 hrs by CCF4-AM staining-based cellular assay
Rattus norvegicus [7] = assay: Hypotensive activity in normotensive anesthetized Wistar rat assessed as reduction of systolic pressure at 1 to 5 mg/kg, iv measured up to 60 mins; assay type: functional, organism-based
Rattus norvegicus [8] = assay: Hypotensive activity in normotensive anesthetized Wistar rat assessed as reduction of diastolic pressure at 1 to 5 mg/kg, iv measured up to 60 mins; assay type: functional, organism-based

SMILES | pKi [1] | pKi [2] | EC50 ([3]; read-out: EC50) [nM] | EC50 [4] [nM] | pKi [5] | EC50 [6] | EC50 [3] | Activity (Rattus norvegicus [7]) | Activity (Rattus norvegicus [8])
O=C1CCCN1CCN1CCN(c2ccccc2Cl)CC1 |  |  |  |  | 7.13 |  |  |  | 
Cc1ccccc1N1CCN(CCN2CCCC2=O)CC1.Cl | 6.09 | 5.92 |  |  |  |  |  |  | 
Cl.O=C1CCCN1CCCCN1CCN(c2ccc(F)cc2F)CC1 | 6.77 | < 5 |  | 46.9 |  | Not Active | Not Active |  | 
COc1ccc(N2CCN(CCN3CCCC3=O)CC2)cc1.Cl | 5.92 | < 5 |  |  |  |  |  |  | 
COc1ccccc1N1CCN(CCN2CCCC2=O)CC1.Cl | < 5 | < 5 |  |  |  |  |  |  | 
Cc1ccccc1N1CCN(CCCCN2CCCC2=O)CC1.Cl | 7.14 | 6.05 |  | 3.5 |  | Not Active | Not Active | Active | Active
Cl.O=C1CCCN1CCN1CCN(c2ccc(Cl)cc2)CC1 | 5.51 | < 5 |  |  |  |  |  |  | 
Cc1ccccc1N1CCN(CCN2CCCC2=O)CC1 |  |  |  |  | 7.05 |  |  |  | 

Further lines, with some results ahead:

pKi [1] | pKi [2] | EC50 ([3]; read-out: EC50) [nM] | EC50 [4] [nM] | pKi [5] | SMILES | EC50 [6] | EC50 [3] | Activity (Rattus norvegicus [7]) | Activity (Rattus norvegicus [8])
7.07 | 5.92 | 329 | 131 |  | Cl.O=C1CCCN1CCCCN1CCN(C(c2ccc(F)cc2)c2ccc(F)cc2)CC1 |  |  |  | 
6.43 | 6.01 |  |  |  | Cl.O=C1CCCN1CCN1CCN(C(c2ccc(F)cc2)c2ccc(F)cc2)CC1 |  |  |  | 
< 5 | < 5 |  |  |  | COc1ccc(N2CCN(CCCCN3CCCC3=O)CC2)cc1.Cl |  |  |  | 
7.3 | 6.01 | 138 | 2.53 |  | Cl.O=C1CCCN1CCCCN1CCN(c2ccccc2Cl)CC1 |  |  | Active | Active
6.65 | < 5 |  | 289 |  | Cl.O=C1CCCN1CCCCN1CCN(C(c2ccccc2)c2ccccc2)CC1 | Not Active | Not Active |  | 
6.44 | < 5 |  | 165 |  | Cl.O=C1CCCN1CCCCN1CCN(c2ccccc2O)CC1 | Not Active | Not Active |  | 
